The target in this assay is T1, K-Ras G12D (Homo sapiens, UniProt P01116, G12D).
T1 construct: AGS (Cobioer, CBP60476) cell lines which harbor KRAS G12D mutation; host or cells: AGS
Briefly: p-ERK Cellular 1-Plate Assay (AlphaLISA SureFire Ultra p-ERK1/2) in AGS cells. In kind it is cell-based. The following applies: AGS cells harboring KRAS G12D mutation, 3 h at 37° C., 5,000 cells per well. How it is done: p-ERK Cellular 1-Plate Assay
The ability of the compound of Formula (I) or a pharmaceutically acceptable salt thereof (test compound) to inhibit K-Ras G12D activity was tested using AGS (Cobioer, CBP60476) cell lines which harbor KRAS G12D mutation as described below.
AGS (Cobioer, CBP60476) were seeded in 384-well plates and cultured overnight (5,000 cells per well, 40 μl total volume). The following morning, cells were treated with test compound, with starting concentration at 10 μM and 3-fold dilution down to 0.5 nM for 3 h at 37° C. DMSO treatment served as control, p-ERK was then measured using AlphaLISA SureFire Ultra p-ERK1/2 (Thr202/Tyr204) Assay Kit (Perkin Elmer, cat #ALSU-PERK) following the manufacturer's instruction as follows.
Briefly, the culture medium was removed and 10 μl 1× lysis buffer was added to each well, followed by 10 minutes incubation on a plate shaker at room temperature. Acceptor mixture was prepared according to manufacturer's instruction. 5 μl acceptor mixture was added to the cell lysate and the plate was wrapped with foil, spun at 500 rpm for 10 s and incubated at RT for 60 min. Donor mixture was prepared under subdued light. 5 μl donor mixture was added to the cell lysate and the plate was spun at 500 rpm for 10s and incubated at RT for another 60 min. in the dark. Signal was then measured on a EnVision 2105 multimode plate reader. […]

T1 sequence (P01116 1-188 isoform P01116-2 G12D): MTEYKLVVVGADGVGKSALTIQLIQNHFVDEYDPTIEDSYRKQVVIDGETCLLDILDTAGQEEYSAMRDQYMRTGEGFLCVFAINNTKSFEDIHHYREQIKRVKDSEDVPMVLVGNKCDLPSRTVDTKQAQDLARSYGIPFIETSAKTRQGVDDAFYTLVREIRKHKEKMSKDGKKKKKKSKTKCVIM

As a reminder, the EC50 is the midpoint of the concentration-response curve. Low readings indicate an effect from little substance, high ones a need for much substance. In turn, `C#Cc1c(F)ccc2cccc(-c3ncc4c(N5CC6CCC(C)(C5)N6)nc(OC[C@]56CC(=C)CN5C[C@@H](F)C6)nc4c3F)c12` (stereo partly drawn) [Example 30, 7-(8-ethynyl-7-fluoronaphthalen-1-yl)-8-fluoro-2-(((2S,7aR)-2-fluoro-6-methylenetetrahydro-1H-pyrrolizin-7a(5H)-yl)methoxy)-4-(1-methyl-3,8-diazabicyclo[3.2.1]octan-3-yl)pyrido[4,3-d]pyrimidine] returned an EC50 of 170 nM.
With `C#Cc1c(F)ccc2cccc(-c3ncc4c(N5CC6CCC5CN6)nc(OC[C@]56CC(=C)CN5C[C@H](F)C6)nc4c3F)c12` (stereo partly drawn) [Example 31, 2-(7-(8-ethynyl-7-fluoronaphthalen-1-yl)-8-fluoro-2-(((2R,7aR)-2-fluoro-6-methylenetetrahydro-1H-pyrrolizin-7a(5H)-yl)methoxy)pyrido[4,3-d]pyrimidin-4-yl)-2,5-diazabicyclo[2.2.2]octane] the figure was above 100 nM.
